The values that follow come from patent US6403628B1 (dated 2002).

What is called melting point is the temperature, or range, at which the solid turns liquid.

In turn, `CC(=O)c1nn(-c2c(Cl)cc(C(F)(F)F)cc2Cl)c(N)c1[S+](C)[O-]` (centres unmarked) displayed a melting point of 166 °C.
`CC(=O)c1nn(-c2c(Cl)cc(C(F)(F)F)cc2Cl)c(NSC(F)(F)F)c1[S+](C)[O-]` (centres unmarked) had a melting point of 67 to 102 °C.
The same measure for `CSc1c(C(C)=O)nn(-c2c(Cl)cc(C(F)(F)F)cc2Cl)c1N`: 113 °C.
`CC[S+]([O-])c1c(C(C)=O)nn(-c2c(Cl)cc(C(F)(F)F)cc2Cl)c1N` (centres unmarked) returned a melting point of 189 °C.
As for `CCNc1c([S+](C)[O-])c(C(C)=O)nn1-c1c(Cl)cc(C(F)(F)F)cc1Cl` (centres unmarked), the melting point came to 123 °C.
Regarding `CNc1c([S+](C)[O-])c(C(C)=O)nn1-c1c(Cl)cc(C(F)(F)F)cc1Cl` (centres unmarked), the melting point is 126 °C.
As to `CCS(=O)(=O)CCNc1c([S+](C)[O-])c(C(C)=O)nn1-c1c(Cl)cc(C(F)(F)F)cc1Cl` (centres unmarked), the melting point was determined as 102 °C.
In turn, `CC(=O)c1nn(-c2c(Cl)cc(C(F)(F)F)cc2Br)c(N)c1[S+](C)[O-]` (centres unmarked) gave a melting point of 153 °C.
